From patent US6911446B2, “Methods of modulating serine/threonine protein kinase function with quinazoline-based compounds” (Sugen, Inc., priority 1997, dated 2005)

Assays:
[1] = system: A549 human lung carcinoma cells; experiment: Growth of A549 cells (SRB); assay type: cell-based
Description: The following assay measures growth rates for A549 cells. The purpose of the assay is to determine the effects of compounds on the growth of A549 human lung carcinoma cells. A549 cells are readily accessible from commercial sources, such as ATCC (CCL185).
• 96-well flat bottom sterile plates • 96-well round bottom sterile plates • sterile 25 mL or 100 mL reservoir • pipets, multi-channel pipetman • sterile pipet tips • sterile 15 mL and 50 mL tubes Reagents: • 0.4% SRB in 1% acetic acid • 10 mM Tris base • 10% TCA • 1% acetic acid • sterile DMSO (Sigma) • compound in DMSO (100 mM or less stock solution) • Trypsin-EDTA (GIBCO BRL) Cell Line and Growth Medium: • A549 human lung carcinoma cells (ATCC CCL185) • 10% fetal calf serum in Ham's F12-K Protocol: Day 0: Cell Plating:
This part of assay is carried out in a laminar flow hood. • 1. Trypsinize cells. Transfer 200 μL of cell suspension to 10 mL of isotone. Count cells with a Coulter Counter. • 2. Dilute cells in growth medium to 20,000 cell/mL. Transfer 100 μL of cells to each well in a 96-well flat bottom plate to give 2000 cells/well. • 3. Use half of plate (4 rows) for each compound and quadruplicate wells for each compound concentration, and a set of 4 wells for medium control. • 4. Gently shake plates to allow for uniform attachment of the cells. • 5. Incubate the plates at 37° C. in a 10% CO2 incubator. Day 1: Addition of Compound:
This part of assay is carried out in a laminar flow hood. • 1. In a 96 well-round bottom plate, add 120 μL of growth medium containing 2×final %DMSO found in highest screening concentration of compound to columns 1 to 11. For example, if the highest screening concentration is 100 μM, and this is made from a 100 mM stock, 1×DMSO is 0.1%, so 2×DMSO is 0.2%. This plate is used to titrate out the compound, 4 rows per compound. • 2. In a sterile 15 mL tube, make a 2×solution of the highest screening concentration of compound in growth medium plus 2×DMSO. 1 mL per cell line is needed. The starting concentration of the compound is usually 100 μM but this concentration may vary depending upon the solubility of the compound. • 3. Transfer 240 μL of the 2×starting compound solution to quadruplicate wells in column 12 of the 96-well round bottom plate. Do 1:2 serial dilutions across the plate from right to left by transferring 120 μL from column 12 to column 11, column 11 to 10 and so on through column 2. Transfer 100 μL of compound dilutions, and 100 μL of medium in column 1, onto 100 μL medium on cells in corresponding wells of 96-well flat bottom plate. Total volume per well should be 200 μL. • 4. Return the plate to the incubator and incubate for 3 days. Day 5: Development of Assay
This part of assay is carried out on the bench. • 1. Aspirate or pour off medium. Add 200 μL cold 10% TCA to each well to fix cells. Incubate plate for at least 60 min. at 4° C. • 2. Discard TCA and rinse wells 5 times with tap water. Dry plates upside down on paper towels. • 3. Stain cells with 100 μL/well 0.4% SRB for 10 min. • 4. Pour off SRB and rinse wells 5 times with 1% acetic acid. Dry plates completely upside down on paper towels. • 5. Solubilize dye with 100 μL/well 10 mM Tris base for 5-10 min. on shaker. • 6. Read plates on Dynatech ELISA Plate Reader at 570 nm with reference at 630 nm.

[2] = system: NIH-3T3 cells expressing RAF-1; experiment: Growth of NIH-3T3 cells expressing RAF-1; assay type: cell-based; conditions: Mus musculus, NIH3T3; growth of NIH-3T3 cells overexpressing RAF
Text: The following assay measures growth rates for NIH-3T3 cells expressing RAF-1. The protocol for the assay is described in detail in PCT Publication WO9640116, filed Jun. 5, 1996, by Tang et al., and entitled “Indolinone Compounds for the Treatment of Disease,” incorporated herein by reference in its entirety, including any drawings.

Row | IC50 [1] | Compound | IC50 [2]
1 | 17.7 µM | Nc1nc(N)c2c(Oc3ccc(F)cc3)cccc2n1 [Compound A-7, 2,4-Diamino-5-(4-fluorophenoxy)quinazoline] | 1.7 µM
2 | 77.9 µM | CC(C)(C)c1ccc(Oc2cccc3nc(N)nc(N)c23)cc1 [Compound A-8, 2,4-Diamino-5-(4-tert-butylphenoxy)quinazoline] | –
3 | 32 µM | Nc1ncnc2cccc(Oc3ccc(OCc4ccccc4)cc3)c12 [Compound A-28, 4-Amino-5-(4-benzyloxyphenoxy)quinazoline] | –
4 | 18 µM | COc1cccc(Oc2cccc3nc(N)nc(N)c23)c1 [Compound A-23, 2,4-Diamino-5-(3-methoxyphenoxy)quinazoline] | –
5 | 26 µM | COc1ccccc1Oc1cccc2nc(N)nc(N)c12 [Compound A-22, 2,4-Diamino-5-(2-methoxyphenoxy)quinazoline] | –
6 | 15.9 µM | Nc1nc(N)c2c(Oc3ccccc3)cccc2n1 [Compound A-1, 2,4-Diamino-5-phenoxyquinazoline] | 0.16 µM
7 | – | Cc1ccc(Oc2cccc3nc(N)nc(N)c23)cc1 [Compound A-9, 2,4-Diamino-5-(4-methylphenoxy)quinazoline] | 5.9 µM
